Laboratory results published in patent US11052026B2, “Multi-capsule containing pigment for cosmetic material or functional component, and method for producing same” (CHEMLAND. CO., LTD., priority 2017, dated 2021).

Assay: Residual rate of functional component during storage at 35° C. for 16 weeks (Example 1)
Assay type: physicochemical
Details: stored at 35° C.
Experimental: The residual rates of the functional components were compared while the cosmetic functional multi-capsule in Preparation Example 3 was stored at 35° C.

Ascorbic Acid Residual Rate (storage period 2 weeks) [%]	Ascorbic Acid Residual Rate (storage period 4 weeks) [%]	Ascorbic Acid Residual Rate (storage period 6 weeks) [%]	Ascorbic Acid Residual Rate (storage period 8 weeks) [%]	Ascorbic Acid Residual Rate (storage period 10 weeks) [%]	Ascorbic Acid Residual Rate (storage period 12 weeks) [%]	Ascorbic Acid Residual Rate (storage period 14 weeks) [%]	Ascorbic Acid Residual Rate (storage period 16 weeks) [%]	Functional Component Residual Rate (storage period 2 weeks) [%]	Functional Component Residual Rate (storage period 4 weeks) [%]	Functional Component Residual Rate (storage period 6 weeks) [%]	Functional Component Residual Rate (storage period 8 weeks) [%]	Functional Component Residual Rate (storage period 10 weeks) [%]	Functional Component Residual Rate (storage period 12 weeks) [%]	Functional Component Residual Rate (storage period 14 weeks) [%]	Functional Component Residual Rate (storage period 16 weeks) [%]	Molecule
97.2	95.3	92.9	90	88.4	81.2	76.3	70.5	–	–	–	–	–	–	–	–	O=C1O[C@H]([C@@H](O)CO)C(O)=C1O [compound 1, ascorbic acid]
–	–	–	–	–	–	–	–	97.2	94.5	91.8	88.8	86.5	78.5	74.5	69.5	anthocyanin [compound 2]
